Reference: patent US20090018194A1, “Use of antimicrobial agents derived from alliaceous plants for the prevention and control of crop diseases, post-harvest rot and as environmental disinifectant products” (DMC Research Center, S.L., priority 2007, published 2009)

Experiments:
Type in all cases: cell-based
Conditions in all cases: incl. 6 mm disc
[1] = tested on: Bacillus megaterium ATCC 33085; assay: agar diffusion test with impregnated cellulose discs
[2] = tested on: Escherichia coli CECT 515; assay: as above
[3] = tested on: Penicillium italicum Wild strain Supplied by UdL-IRTA; assay: agar diffusion test, wild phytopathogens isolated from citrus rot
[4] = tested on: Penicillium italicum CECT 2294; assay: agar diffusion test with impregnated cellulose discs
[5] = tested on: Penicillium sp. (CPC-PT-1); assay: agar diffusion test, wild fungi isolated from crown rot in bananas
[6] = tested on: Penicillium digitatum Supplied by Brogdex SA; assay: agar diffusion test, wild phytopathogens isolated from citrus rot
[7] = tested on: Saccharomyces cerevisiae CECT 1324; assay: agar diffusion test with impregnated cellulose discs
[8] = tested on: Phytophthora citrophthora CECT 2353; assay: agar diffusion test, wild phytopathogens isolated from citrus rot
[9] = tested on: Candida magnoliae DSMZ 70638; assay: agar diffusion test with impregnated cellulose discs
Fusarium sp. (CPC-PT-8) = assay: agar diffusion test, wild fungi isolated from crown rot in bananas
Method: (§1) A. The “in vitro” antimicrobial activity of these compounds was tested (referenced as PTS and PTSO), at different doses, as well as their activity against a broad spectrum of bacteria, fungi and yeasts. The tests were conducted against standard micro-organisms (reference strains from different collections of standard crops) and also against wild strains isolated from different types of rot and fruits and other affected crops.
(§2) These tests of antimicrobial capacity were conducted according to the agar diffusion technique, using cellulose discs 6 mm in diameter, impregnated with the different doses under study. For the assessment of the anti-fungal capability, the medium Sabouraud glucosate agar 2% was used, inoculated with suspensions of spores prepared to a concentration on the order of 10^8 cells/ml. To assess the antibacterial capability, the cultivation medium Müller-Hinton agar was used, inoculated with suspensions of bacteria prepared to a concentration of 10^6 cells/ml.
(§3) Once the plates were inoculated, the discs previously impregnated with the different test doses of each of the compounds to be analyzed were put in place. The reading was taken after incubation of the plates by measuring the zone of inhibition that appeared, and the result was expressed in mm corresponding to the diameter of the halo that appeared (including the 6 mm of the cellulose disc).
(§4) Once the screening of the anti-microbial capability of the compounds claimed by the invention had been performed over a broad range of reference strains, their efficiency was corroborated against wild strains, which we isolated as specific pathogens that affect different crops of different geographic origins.

Fusarium sp. (CPC-PT-7) = assay: as above
Method: as §1, §2, §3, §4

[10] = tested on: Colletotrichum sp. (CPC-PC-6); assay: as above
Method: as §1, §2, §3, §4

Fusarium sp. (CPC-PT-9) = assay: as above
Method: as §1, §2, §3, §4

[11] = tested on: Unidentified yeast (CPC-PT-10); assay: as above
Method: as §1, §2, §3, §4

[12] = tested on: Colletotrichum sp. (CPC-PT-5); assay: as above
Method: as §1, §2, §3, §4

[13] = tested on: Penicillium sp. (CPC-PT-3); assay: as above

CCCS[S+]([O-])CCC (stereo not drawn) [PTS, Propyl Propyl Thiosulfinate]
diameter of the microbial inhibition halo ([1]; 25 ppm): 23 mm
diameter of the microbial inhibition halo ([1]; 50 ppm): 27 mm
diameter of the microbial inhibition halo ([1]; 100 ppm): 34 mm
diameter of the microbial inhibition halo ([2]; 25 ppm): 14 mm
diameter of the microbial inhibition halo ([2]; 50 ppm): 17 mm
diameter of the microbial inhibition halo ([2]; 100 ppm): 21 mm
diameter of the microbial inhibition halo ([3]; 30 ppm): 0 mm
diameter of the microbial inhibition halo ([3]; 60 ppm): 0 mm
diameter of the microbial inhibition halo ([3]; 125 ppm): 13 mm
diameter of the microbial inhibition halo ([3]; 250 ppm): 13 mm
diameter of the microbial inhibition halo ([3]; 500 ppm): 15 mm
diameter of the microbial inhibition halo ([3]; 1000 ppm): 20 mm
diameter of the microbial inhibition halo ([4]; 25 ppm): 22 mm
diameter of the microbial inhibition halo ([4]; 50 ppm): 26 mm
diameter of the microbial inhibition halo ([4]; 100 ppm): 34 mm
diameter of the microbial inhibition halo ([5]; 30 ppm): 0 mm
diameter of the microbial inhibition halo ([5]; 60 ppm): 0 mm
diameter of the microbial inhibition halo ([5]; 125 ppm): 11 mm
diameter of the microbial inhibition halo ([5]; 250 ppm): 15 mm
diameter of the microbial inhibition halo ([5]; 500 ppm): 18 mm
diameter of the microbial inhibition halo ([5]; 1000 ppm): 20 mm
diameter of the microbial inhibition halo ([6]; 30 ppm): 12 mm
diameter of the microbial inhibition halo ([6]; 60 ppm): 15 mm
diameter of the microbial inhibition halo ([6]; 125 ppm): 20 mm
diameter of the microbial inhibition halo ([6]; 250 ppm): 33 mm
diameter of the microbial inhibition halo ([6]; 500 ppm): 33 mm
diameter of the microbial inhibition halo ([6]; 1000 ppm): 35 mm
diameter of the microbial inhibition halo ([7]; 25 ppm): 28 mm
diameter of the microbial inhibition halo ([7]; 50 ppm): 32 mm
diameter of the microbial inhibition halo ([7]; 100 ppm): 44 mm
diameter of the microbial inhibition halo ([8]; 30 ppm): 10 mm
diameter of the microbial inhibition halo ([8]; 60 ppm): 21 mm
diameter of the microbial inhibition halo ([8]; 125 ppm): 23 mm
diameter of the microbial inhibition halo ([8]; 250 ppm): 42 mm
diameter of the microbial inhibition halo ([8]; 500 ppm): 53 mm
diameter of the microbial inhibition halo ([8]; 1000 ppm): 55 mm
diameter of the microbial inhibition halo ([9]; 25 ppm): 22 mm
diameter of the microbial inhibition halo ([9]; 50 ppm): 30 mm
diameter of the microbial inhibition halo ([9]; 100 ppm): 38 mm
diameter of the microbial inhibition halo (Fusarium sp. (CPC-PT-8); 30 ppm): 0 mm
diameter of the microbial inhibition halo (Fusarium sp. (CPC-PT-8); 60 ppm): 10 mm
diameter of the microbial inhibition halo (Fusarium sp. (CPC-PT-8); 125 ppm): 12 mm
diameter of the microbial inhibition halo (Fusarium sp. (CPC-PT-8); 250 ppm): 15 mm
diameter of the microbial inhibition halo (Fusarium sp. (CPC-PT-8); 500 ppm): 20 mm
diameter of the microbial inhibition halo (Fusarium sp. (CPC-PT-8); 1000 ppm): 20 mm
diameter of the microbial inhibition halo (Fusarium sp. (CPC-PT-7); 30 ppm): 0 mm
diameter of the microbial inhibition halo (Fusarium sp. (CPC-PT-7); 60 ppm): 0 mm
diameter of the microbial inhibition halo (Fusarium sp. (CPC-PT-7); 125 ppm): 15 mm
diameter of the microbial inhibition halo (Fusarium sp. (CPC-PT-7); 250 ppm): 25 mm
diameter of the microbial inhibition halo (Fusarium sp. (CPC-PT-7); 500 ppm): 25 mm
diameter of the microbial inhibition halo (Fusarium sp. (CPC-PT-7); 1000 ppm): 35 mm
diameter of the microbial inhibition halo ([10]; 30 ppm): 20 mm
diameter of the microbial inhibition halo ([10]; 60 ppm): 30 mm
diameter of the microbial inhibition halo ([10]; 125 ppm): 35 mm
diameter of the microbial inhibition halo ([10]; 250 ppm): 47 mm
diameter of the microbial inhibition halo ([10]; 500 ppm): 48 mm
diameter of the microbial inhibition halo ([10]; 1000 ppm): 45 mm
diameter of the microbial inhibition halo (Fusarium sp. (CPC-PT-9); 30 ppm): 0 mm
diameter of the microbial inhibition halo (Fusarium sp. (CPC-PT-9); 60 ppm): 0 mm
diameter of the microbial inhibition halo (Fusarium sp. (CPC-PT-9); 125 ppm): 0 mm
diameter of the microbial inhibition halo (Fusarium sp. (CPC-PT-9); 250 ppm): 15 mm
diameter of the microbial inhibition halo (Fusarium sp. (CPC-PT-9); 500 ppm): 30 mm
diameter of the microbial inhibition halo (Fusarium sp. (CPC-PT-9); 1000 ppm): 33 mm
diameter of the microbial inhibition halo ([11]; 30 ppm): 40 mm
diameter of the microbial inhibition halo ([11]; 60 ppm): 45 mm
diameter of the microbial inhibition halo ([11]; 125 ppm): 50 mm
diameter of the microbial inhibition halo ([11]; 250 ppm): 55 mm
diameter of the microbial inhibition halo ([11]; 500 ppm): 63 mm
diameter of the microbial inhibition halo ([11]; 1000 ppm): 65 mm
diameter of the microbial inhibition halo ([12]; 30 ppm): 10 mm
diameter of the microbial inhibition halo ([12]; 60 ppm): 20 mm
diameter of the microbial inhibition halo ([12]; 125 ppm): 30 mm
diameter of the microbial inhibition halo ([12]; 250 ppm): 40 mm
diameter of the microbial inhibition halo ([12]; 500 ppm): 43 mm
diameter of the microbial inhibition halo ([12]; 1000 ppm): 43 mm
diameter of the microbial inhibition halo ([13]; 30 ppm): 0 mm
diameter of the microbial inhibition halo ([13]; 60 ppm): 0 mm
diameter of the microbial inhibition halo ([13]; 125 ppm): 10 mm
diameter of the microbial inhibition halo ([13]; 250 ppm): 13 mm
diameter of the microbial inhibition halo ([13]; 500 ppm): 15 mm
diameter of the microbial inhibition halo ([13]; 1000 ppm): 17 mm
